Measured values reported in patent US12071425B2 (Genentech, Inc., priority 2018, dated 2024).
Structures can show the parent of a compound that is named as a salt.

target: kinase domain of IRE1 alpha (His-tagged kinase dead construct KR, AA G547-L977, D688N) (Homo sapiens (Human), UniProt O75460, D688N); assay: IRE1α TR-FRET competition binding assay; conditions: competition with Kinase Tracer 236, 0.1 μM; one hour at room temperature
In short: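 Sf9-expressed kinase-dead KR construct (0.006 μM final) pre-incubated 1 h at 4° C with Eu anti-His antibody (0.002 μM) in HEPES pH 7.5/MgCl2/Brij/DTT buffer; Kinase Tracer 236 (ATP-competitive probe, 0.1 μM final) added with compound. 1 h at room temperature; tracer displacement read by TR-FRET (665/615 nm).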

kinase domain of IRE1 alpha (His-tagged kinase dead construct KR, AA G547-L977, D688N), sequence (O75460 547-977 D688N): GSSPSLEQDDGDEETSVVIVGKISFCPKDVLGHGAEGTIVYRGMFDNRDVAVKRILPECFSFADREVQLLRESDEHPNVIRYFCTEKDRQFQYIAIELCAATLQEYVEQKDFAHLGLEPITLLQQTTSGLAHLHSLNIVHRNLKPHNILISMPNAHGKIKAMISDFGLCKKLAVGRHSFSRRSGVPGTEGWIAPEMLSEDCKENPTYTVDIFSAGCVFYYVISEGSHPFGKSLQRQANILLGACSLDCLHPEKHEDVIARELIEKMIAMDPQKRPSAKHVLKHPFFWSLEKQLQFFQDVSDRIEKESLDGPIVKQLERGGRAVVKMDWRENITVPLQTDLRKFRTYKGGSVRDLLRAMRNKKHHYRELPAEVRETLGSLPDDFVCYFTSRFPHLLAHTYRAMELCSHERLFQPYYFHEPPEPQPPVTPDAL

| Compound | IC50 [nM] |
| --- | --- |
| O=S(=O)(Cc1ccccc1F)Nc1cc(Cl)c(Oc2ncccc2-c2ccnc(N[C@@H]3CNC[C@@H](F)C3)n2)c(F)c1F [Compound 340, N-(5-Chloro-2,3-difluoro-4-((3-(2-(((3S,5S)-5-fluoropiperidin-3-yl)amino)pyrimidin-4-yl)pyridin-2-yl)oxy)phenyl)-1-(2-fluorophenyl)methanesulfonamide] | 7.5 |
| C[C@H]1CNC[C@@H](Nc2nccc(-c3cccnc3Oc3cc(F)c(NS(=O)(=O)Cc4ccccc4)c(F)c3F)n2)C1 [Compound 165, 1-phenyl-N-(2,3,6-trifluoro-4-((3-(2-(((3S,5R)-5-methyl-3-piperidyl)amino)pyrimidin-4-yl)-2-pyridyl)oxy)phenyl)methanesulfonamide] | 2.7 |
| CCC(F)(F)CS(=O)(=O)Nc1c(F)cc(Oc2ncccc2-c2ccnc(N[C@@H]3CNC[C@@H](F)C3)n2)c(F)c1F [Compound 189, 2.2-difluoro-N-(2,3,6-trifluoro-4-((3-(2-(((3S,5S)-5-fluoro-3-piperidyl)amino)pyrimidin-4-yl)-2-pyridyl)oxy)phenyl)butane-1-sulfonamide] | 5 |
| O=S(=O)(Cc1ccccc1)Nc1ccc(Oc2ncccc2-c2ccnc(N[C@@H]3CNC[C@@H](F)C3)n2)c(F)c1F [Compound 112, N-(2,3-difluoro-4-((3-(2-(((3S,5S)-5-fluoropiperidin-3-yl)amino)pyrimidin-4-yl)pyridin-2-yl)oxy)phenyl)-1-phenylmethanesulfonamide] | 4.6 |
| O=S(=O)(Cc1ccccc1)Nc1ccc(Cl)c(Oc2ncccc2-c2ccnc(N[C@H]3CCCNC3)n2)c1F [Compound 138, (S)—N-(4-Chloro-2-fluoro-3-((3-(2-(piperidin-3-ylamino)pyrimidin-4-yl)pyridin-2-yl)oxy)phenyl)-1-phenylmethanesulfonamide] | 15 |
| C[C@@]1(F)CNC[C@@H](Nc2nccc(-c3cccnc3Oc3ccc(NS(=O)(=O)Cc4ccccc4)c(F)c3F)n2)C1 [Compound 174, N-(2,3-difluoro-4-((3-(2-(((3S,5S)-5-fluoro-5-methylpiperidin-3-yl)amino)pyrimidin-4-yl)pyridin-2-yl)oxy)phenyl)-1-phenylmethanesulfonamide] | 3.1 |
| Cc1ccc(NS(=O)(=O)Cc2ccccc2)cc1Oc1ncccc1-c1ccnc(N[C@H]2CCCNC2)n1 [Compound 136, (S)—N-(4-Methyl-3-((3-(2-(piperidin-3-ylamino)pyrimidin-4-yl)pyridin-2-yl)oxy)phenyl)-1-phenylmethanesulfonamide hydrochloride] | 200 |
| Cc1ccc(CS(=O)(=O)Nc2c(F)cc(Oc3ncccc3-c3ccnc(N[C@@H]4CNC[C@@](C)(F)C4)n3)c(F)c2F)cc1 [Compound 284, 1-p-Tolyl-N-(2,3,6-trifluoro-4-((3-(2-(((3S,5S)-5-fluoro-5-methylpiperidin-3-yl)amino)pyrimidin-4-yl)pyridin-2-yl)oxy)phenyl)methanesulfonamide] | 0.15 |
| CC(F)C1CNCC(Nc2nccc(-c3cccnc3Oc3cc(F)c(NS(=O)(=O)Cc4ccccc4)c(F)c3F)n2)C1 (single isomer, unassigned) [Compound 342, 1-Phenyl-N-(2,3,6-trifluoro-4-((3-(2-((5-(1-fluoroethyl)piperidin-3-yl)amino)pyrimidin-4-yl)pyridin-2-yl)oxy)phenyl)methanesulfonamide hydrochloride] | 0.16 |
| Cc1cc(NC(=O)C2CC2)cc(F)c1Oc1ncccc1-c1ccnc(N[C@H]2CC[C@H](N)CC2)n1 [Compound 120, N-(4-((3-(2-(((1r,4r)-4-aminocyclohexyl)amino)pyrimidin-4-yl)pyridin-2-yl)oxy)-3-fluoro-5-methylphenyl)cyclopropanecarboxamide hydrochloride] | 110 |
| CC(F)(F)CCS(=O)(=O)Nc1ccc(Oc2ncccc2-c2ccnc(N[C@H]3CCCNC3)n2)c(F)c1F [Compound 149, (S)-N-(2,3-difluoro-4-((3-(2-(piperidin-3-ylamino)pyrimidin-4-yl)pyridin-2-yl)oxy)phenyl)-3,3-difluorobutane-1-sulfonamide hydrochloride] | 8.7 |
| C[C@@]1(F)CNC[C@@H](Nc2nccc(-c3cccnc3Oc3cc(F)c(NS(=O)(=O)CC4CCC4)c(F)c3F)n2)C1 [Compound 202, 1-cyclobutyl-N-(2,3,6-trifluoro-4-((3-(2-(((3S,5S)-5-fluoro-5-methylpiperidin-3-yl)amino)pyrimidin-4-yl)pyridin-2-yl)oxy)phenyl)methanesulfonamide] | 4.4 |
| O=S(=O)(Cc1ccccc1)Nc1c(F)cc(Oc2ncccc2-c2ccnc(NC3CNCC4(C3)CC4(F)F)n2)c(F)c1F (single isomer, unassigned) [Compound 298, N-(4-((3-(2-((1,1-Difluoro-5-azaspiro[2.5]octan-7-yl)amino)pyrimidin-4-yl)pyridin-2-yl)oxy)-2,3,6-trifluorophenyl)-1-phenylmethanesulfonamide] | 1.8 |
| O=S(=O)(Cc1ccc(Cl)cc1F)Nc1c(F)cc(Oc2ncccc2-c2ccnc(N[C@@H]3CNC[C@@H](F)C3)n2)c(F)c1F [Compound 364, 1-(4-Chloro-2-fluoro-phenyl)-N-[2,3,6-trifluoro-4-[[3-[2-[[(3S,5S)-5-fluoro-3-piperidyl]amino]pyrimidin-4-yl]-2-pyridyl]oxy]phenyl]methanesulfonamide] | 0.3 |
| CN(C)C1CCC(Nc2nccc(-c3cccnc3Oc3cc(F)c(NS(=O)(=O)Cc4ccccc4)c(F)c3F)n2)CC1F (single isomer, unassigned) [Compound 308, N-(4-((3-(2-((4-(Dimethylamino)-3-fluorocyclohexyl)amino)pyrimidin-4-yl)pyridin-2-yl)oxy)-2,3,6-trifluorophenyl)-1-phenylmethanesulfonamide] | 83 |
| O=S(=O)(Cc1ccccc1)Nc1cc(F)c(Oc2ncccc2-c2ccnc(N[C@H]3CCCNC3)n2)c(F)c1F [Compound 156, (S)-1-phenyl-N-(2,3,5-trifluoro-4-((3-(2-(piperidin-3-ylamino)pyrimidin-4-yl)pyridin-2-yl)oxy)phenyl)methanesulfonamide hydrochloride] | 4.6 |
| O=S(=O)(CCC(F)(F)F)Nc1c(F)cc(Oc2ncccc2-c2ccnc(N[C@@H]3CNC[C@@H](F)C3)n2)c(F)c1F [Compound 205, 3,3,3-trifluoro-N-(2,3,6-trifluoro-4-((3-(2-(((3S,5S)-5-fluoro-3-piperidyl)amino)pyrimidin-4-yl)-2-pyridyl)oxy)phenyl)propane-1-sulfonamide] | 4.4 |
| Cc1cc(NS(=O)(=O)Cc2ccccc2)c(F)c(F)c1Oc1ncccc1-c1ccnc(N[C@@H]2CNC[C@H](C)C2)n1 [Compound 177, N-(2,3-difluoro-5-methyl-4-((3-(2-(((3S,5R)-5-methyl-3-piperidyl)amino)pyrimidin-4-yl)-2-pyridyl)oxy)phenyl)-1-phenyl-methanesulfonamide] | 4.9 |
| N#Cc1c(NS(=O)(=O)Cc2ccccc2)ccc(Oc2ncccc2-c2ccnc(N[C@H]3CCCNC3)n2)c1F [Compound 163, (S)-N-(2-cyano-3-fluoro-4-((3-(2-(piperidin-3-ylamino)pyrimidin-4-yl)pyridin-2-yl)oxy)phenyl)-1-phenylmethanesulfonamide hydrochloride] | 6.6 |
| Cc1c(NC(=O)CC2CCCCC2)ccc(Oc2ncccc2-c2ccnc(N[C@H]3CCCNC3)n2)c1C [Compound 129, (S)-2-Cyclohexyl-N-(2,3-dimethyl-4-((3-(2-(piperidin-3-ylamino)pyrimidin-4-yl)pyridin-2-yl)oxy)phenyl)acetamide] | 230 |
| N#Cc1ccc(CS(=O)(=O)Nc2c(F)cc(Oc3ncccc3-c3ccnc(N[C@@H]4CNC[C@@H](F)C4)n3)c(F)c2F)cc1 [Compound 191, 1-(4-cyanophenyl)-N-(2,3,6-trifluoro-4-((3-(2-(((3S,5S)-5-fluoropiperidin-3-yl)amino)pyrimidin-4-yl)pyridin-2-yl)oxy)phenyl)methanesulfonamide] | 4.3 |
| O=S(=O)(Cc1ccccc1)Nc1cccc(Oc2ncccc2-c2ccnc(N[C@H]3CCCNC3)n2)c1 [Compound 133, (S)-1-Phenyl-N-(3-((3-(2-(piperidin-3-ylamino)pyrimidin-4-yl)pyridin-2-yl)oxy)phenyl)methanesulfonamide hydrochloride] | 120 |
| Cc1cc(Oc2ncccc2-c2ccnc(N[C@H]3CCCNC3)n2)c(F)c(F)c1NS(=O)(=O)Cc1ccccc1 [Compound 160, (S)-N-(2,3-difluoro-6-methyl-4-((3-(2-(piperidin-3-ylamino)pyrimidin-4-yl)pyridin-2-yl)oxy)phenyl)-1-phenylmethanesulfonamide] | 5.4 |
| Cc1ccc(C(=O)NS(=O)(=O)c2ccccc2Cl)cc1Oc1ncccc1-c1ccnc(N[C@H]2CCCNC2)n1 [Compound 103, (S)-N-((2-chlorophenyl)sulfonyl)-4-methyl-3-((3-(2-(piperidin-3-ylamino)pyrimidin-4-yl)pyridin-2-yl)oxy)benzamide] | 30 |
| CN(C)C1CCC(Nc2nccc(-c3cccnc3Oc3cc(F)c(NS(=O)(=O)Cc4ccccc4)c(F)c3F)n2)CC1F (single isomer, unassigned) [Compound 307, N-(4-((3-(2-((4-(Dimethylamino)-3-fluorocyclohexyl)amino)pyrimidin-4-yl)pyridin-2-yl)oxy)-2,3,6-trifluorophenyl)-1-phenylmethanesulfonamide hydrochloride] | 0.31 |
| NC(=O)c1ccc(CS(=O)(=O)Nc2c(F)cc(Oc3ncccc3-c3ccnc(N[C@@H]4CNC[C@@H](F)C4)n3)c(F)c2F)c(F)c1 [Compound 361, 3-Fluoro-4-[[2,3,6-trifluoro-4-[[3-[2-[[(3S,5S)-5-fluoro-3-piperidyl]amino]pyrimidin-4-yl]-2-pyridyl]oxy]phenyl]sulfamoylmethyl]benzamide] | 0.3 |
